Values of other authors, collected in article PMC6611711 (Molecular cancer therapeutics, 2018).

Experiments:
[1] = test system: panel of cancer cell lines; conditions: inhibition of choline kinase alpha (CKα)
tumor xenograft = conditions: mice

SMILES: CN(C)c1cc[n+](CCCCCCCCCCCC[n+]2ccc(N(C)C)cc2)cc1.[Br-].[Br-] [ICL-CCIC-0019]
- Growth of a panel of cancer cell lines [1]: suppressed growth of a panel of cancer cell lines
- Tumor xenograft growth (tumor xenograft): inhibited tumor xenograft growth in mice
